Measurements: patent US12281114B2, “NK3 modulators and uses thereof” (Kallyope, Inc., priority 2023, dated 2025)
pIC50: −log10 of the molar value.

Experiments:
[1] = test system: acute nitroglycerin (NTG) migraine model in rats; assay: Acute nitroglycerin (NTG) rat migraine model, periorbital von Frey threshold; type: in vivo; settings: male Sprague Dawley rats, 10 mg/kg NTG i.p., 30 mg/kg test compound, 90 min; 50% periorbital threshold after compound / baseline x 100
Protocol: An acute nitroglycerin (NTG) model was used to assess migraine efficacy in rats (for a review see: Sureda-Gibert, P, Neurobiol Pain. 2022 August-December; 12: 100105). Briefly, male Sprague Dawley rats, 8-weeks old (Charles River Laboratories), were pair-housed in a 12-h light cycle room upon facility arrival and left to acclimate for a minimum of 72 h. Animals were provided standard rodent chow (PicoLab Rodent Diet, 5053) and water ad libitum. Following the acclimation period, rats underwent a single behavioral testing apparatus acclimation. Rats were left to freely move and habituate for a minimum of 20 min. The testing apparatus used was a Multiple Configuration Animal Enclosure (Ugo Basile, 37000-007) placed on a self-standing table with a mesh-perforated bottom.
Periorbital threshold was measured using the up-down method (Chaplan, S. R., et al., J Neurosci Methods, 1994 July; 53(1):55-63), in which von Frey filaments (Ugo Basile, 37450-275) of increasing forces (0.4-15 g) were applied to the periorbital region until an application of a filament evoked a response, typically indicated by a rapid withdrawal response or paw swipe to the periorbital region. Once a response was observed, four more readings were obtained following the first change of direction to determine the withdrawal threshold close to 50%. The 50% threshold was then calculated using the following formula: 50% threshold (g)=10^(X+kd)/10^4, where X=the value, in log units, of the final von Frey filament, k=tabular value for the response pattern, and d=the average increment, in log units, between von Frey filaments.
Following acclimation, a baseline assessment was performed, and rats were then randomized into balanced treatment groups using baseline periorbital threshold measurements. On the day of the experiment, rats (n=12/group) were weighed and administered 10 mg/kg NTG (2 mg/mL in 0.9% saline; Henry Schein, NDC-0517-4810-25) by intraperitoneal injection, immediately followed by their assigned compound treatment of either vehicle (0.25% methyl cellulose, 5% Tween 80, 0.02% sodium dodecyl sulfate (SDS) in Hanks' Buffered Salt Solution with Ca^2+ and Mg^2+), 10 mg/kg sumatriptan as a positive control (2 mg/mL in vehicle; Ambeed, A260899-1g) or 30 mg/kg test compound (10 mg/mL in vehicle).
Approximately 70 min post dosing, animals were placed in the behavioral testing apparatus and allowed to habituate to individual enclosures for a minimum of 20 min prior to von Frey assessment. Von Frey measurements were then recorded at 90 and 120. Upon final measurement, rats were immediately euthanized via CO2 asphyxiation followed by exsanguination. Blood was collected in lithium-heparin serum-separating tubes (BD, 365985) and processed for serum collection. Serum samples were then stored at −80° C.
Migraine efficacy (%) was calculated by dividing the 50% threshold (g) following administration of test compound by the baseline 50% threshold (g) and then multiplying by 100.

human NK3 = target: T1, human NK3 (Homo sapiens, UniProt P29371); assay: FLIPR calcium assay in antagonist mode (NKB EC70 challenge); type: cell-based; settings: stable cell line expressing human recombinant NK3; antagonist mode vs EC70 of NKB agonist
T1 sequence (P29371 1-465): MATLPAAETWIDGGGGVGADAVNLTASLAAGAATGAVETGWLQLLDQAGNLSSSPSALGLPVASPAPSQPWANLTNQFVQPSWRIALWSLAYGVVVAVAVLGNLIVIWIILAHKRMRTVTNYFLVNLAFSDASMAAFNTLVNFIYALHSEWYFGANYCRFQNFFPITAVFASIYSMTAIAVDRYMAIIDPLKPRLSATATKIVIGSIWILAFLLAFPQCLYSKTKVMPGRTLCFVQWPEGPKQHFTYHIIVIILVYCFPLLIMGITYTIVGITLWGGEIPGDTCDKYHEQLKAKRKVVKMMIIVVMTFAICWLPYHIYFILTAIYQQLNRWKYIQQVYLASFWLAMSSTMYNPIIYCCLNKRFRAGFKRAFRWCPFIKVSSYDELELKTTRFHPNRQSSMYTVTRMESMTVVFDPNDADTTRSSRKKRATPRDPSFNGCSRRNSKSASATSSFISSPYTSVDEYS
In short: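 Recombinant human NK3 stable cells loaded with Calcium 6 dye were given compound, read for 10 min, then challenged with NKB at its predetermined EC70 and read 10 min by FLIPR. The second peak minus baseline was normalized to 10 μM and 0 μM antagonist controls, and fitted for IC50 and efficacy.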

P-glycoprotein (P-gp) = target: T2, P-glycoprotein (P-gp) (Homo sapiens, UniProt P08183); assay: P-gp substrate assessment in MDR1-MDCK II cells; type: in vitro ADME; settings: dog, MDCK-MDR1, pH 7.4
T2 construct: expressed in transfected cells; host or cells: MDR1-MDCK II
T2 sequence (P08183 whole entry): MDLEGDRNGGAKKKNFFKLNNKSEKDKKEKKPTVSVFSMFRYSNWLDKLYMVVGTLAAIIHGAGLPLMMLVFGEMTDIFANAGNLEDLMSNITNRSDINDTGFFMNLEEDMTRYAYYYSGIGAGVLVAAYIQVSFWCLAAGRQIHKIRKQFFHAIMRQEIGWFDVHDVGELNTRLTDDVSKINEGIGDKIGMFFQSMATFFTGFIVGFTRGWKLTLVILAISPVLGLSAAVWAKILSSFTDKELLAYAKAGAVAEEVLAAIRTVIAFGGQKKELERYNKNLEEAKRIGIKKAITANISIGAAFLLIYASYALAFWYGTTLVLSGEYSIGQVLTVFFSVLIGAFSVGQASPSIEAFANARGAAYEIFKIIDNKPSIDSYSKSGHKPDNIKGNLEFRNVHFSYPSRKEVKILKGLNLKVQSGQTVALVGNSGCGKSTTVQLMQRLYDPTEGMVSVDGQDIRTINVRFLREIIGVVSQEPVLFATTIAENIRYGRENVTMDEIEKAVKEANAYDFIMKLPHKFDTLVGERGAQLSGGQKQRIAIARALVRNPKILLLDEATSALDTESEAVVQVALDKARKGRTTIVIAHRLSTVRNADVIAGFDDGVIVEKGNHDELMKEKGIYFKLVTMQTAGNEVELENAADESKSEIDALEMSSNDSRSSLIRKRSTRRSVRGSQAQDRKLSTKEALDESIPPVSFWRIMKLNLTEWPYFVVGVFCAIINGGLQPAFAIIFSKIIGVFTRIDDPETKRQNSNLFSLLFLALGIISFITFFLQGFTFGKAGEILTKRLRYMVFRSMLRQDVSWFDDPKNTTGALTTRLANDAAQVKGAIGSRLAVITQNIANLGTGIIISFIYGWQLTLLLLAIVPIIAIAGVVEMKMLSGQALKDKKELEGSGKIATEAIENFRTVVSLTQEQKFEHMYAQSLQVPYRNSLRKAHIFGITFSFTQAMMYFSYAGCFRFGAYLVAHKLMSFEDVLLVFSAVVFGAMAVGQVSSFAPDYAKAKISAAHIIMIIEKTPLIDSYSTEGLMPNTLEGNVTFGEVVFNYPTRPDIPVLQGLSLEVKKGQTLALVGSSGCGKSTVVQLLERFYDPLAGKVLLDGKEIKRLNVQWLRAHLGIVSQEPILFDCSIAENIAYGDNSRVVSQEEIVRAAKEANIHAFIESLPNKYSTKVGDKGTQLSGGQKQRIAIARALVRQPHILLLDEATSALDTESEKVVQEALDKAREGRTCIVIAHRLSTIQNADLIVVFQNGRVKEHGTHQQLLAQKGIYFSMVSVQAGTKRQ
Protocol: MDR1-MDCK II from passage 5-35 were used for P-gp substrate assessment studies. Briefly, test compounds were diluted with transport buffer (HBSS with 10 mM HEPES, pH 7.4) from stock solution to a concentration of 2.00 μM (DMSO<1%) and applied to the apical or basolateral side of the cell monolayer. […] Compounds were quantified by LC/MS/MS analysis based on the peak area ratio of analyte/internal standard. The efflux ratio of each compound was determined according to the following equation: Efflux Ratio=Papp (BA)/Papp (AB).

Structure (SMILES)	pIC50 (human NK3)	efflux ratio at 150 min, 2 μM (P-glycoprotein (P-gp))	Efficacy (%) [1]
Cn1cc(-c2cccc(F)c2-c2nc3cc(C(=O)N4CCC5(CC4)CC(C)(O)C5)ccn3c2Cl)cn1 [Compound 915, (3-chloro-2-(2-fluoro-6-(1-methyl-1H-pyrazol-4-yl)phenyl)imidazo[1,2-a]pyridin-7-yl)(2-hydroxy-2-methyl-7-azaspiro[3.5]nonan-7-yl)methanone]	8.37	–	92%
Cc1nn(C)cc1-c1cc(F)ccc1-c1nc2cc(C(=O)N[C@@H]3CO[C@H]4[C@@H]3OC[C@H]4O)ccn2c1Cl [Compound 16, 3-chloro-2-(2-(1,3-dimethyl-1H-pyrazol-4-yl)-4-fluorophenyl)-N-((3R,3aR,6R,6aR)-6-hydroxyhexahydrofuro[3,2-b]furan-3-yl)imidazo[1,2-a]pyridine-7-carboxamide]	–	–	82%
Cc1nn(C)cc1-c1cccc(F)c1-c1nc2cc(C(=O)NC3CCNCC3)ccn2c1Cl [Compound 705]	8.30	–	–
Cn1cc(-c2cccc(F)c2-c2nc3cc(C(=O)N[C@]45CC[C@](CO)(C4)OC5)ccn3c2Cl)cn1 [Compound 934]	8.01	–	–
Cc1nn(C)cc1-c1ccccc1-c1nc2cc(C(=O)N[C@H]3C[C@](C)(O)C3)ccn2c1Cl [Compound 447]	8.50	–	–
Cc1nn(C)cc1-c1ccccc1-c1nc2cc(C(=O)N3CC(=O)N[C@H](CO)C3)ccn2c1Cl [Compound 639]	8.42	–	–
CCn1cc(-c2ccccc2-c2nc3cc(C(=O)N[C@@H]4CO[C@H]5[C@@H]4OC[C@H]5O)ccn3c2Cl)c(C)n1 [Compound 476]	8.48	–	–
Cc1nn(C)cc1-c1c(F)cncc1-c1nc2cc(C(=O)N[C@H]3C[C@](C)(O)C3)ccn2c1Cl [Compound 824]	8.23	–	–
Cc1nn(C)cc1-c1ccccc1-c1nc2cc(C(=O)N[C@@H]3CO[C@H]4[C@@H]3OC[C@H]4O)ccn2c1C [Compound 425]	8.50	–	–
O=C(NC1CS(=O)(=O)C1)c1ccn2c(Cl)c(-c3c(F)cc(F)cc3-c3c[nH]nc3F)nc2c1 [Compound 830]	8.18	–	–

Now from value to compound, other results behind:

pIC50 (human NK3)	efflux ratio at 150 min, 2 μM (P-glycoprotein (P-gp))	Structure (SMILES)	Efficacy (%) [1]
8.92	32.7	Cc1nn(C)cc1-c1ccccc1-c1nc2cc(C(=O)N[C@@H]3CO[C@H]4[C@@H]3OC[C@H]4O)ccn2c1Cl [Compound 7, 3-chloro-2-(2-(1,3-dimethyl-1H-pyrazol-4-yl)phenyl)-N-((3R,3aR,6R,6aR)-6-hydroxyhexahydrofuro[3,2-b]furan-3-yl)imidazo[1,2-a]pyridine-7-carboxamide]	81%
8.58	–	Cn1cc(-c2cccc(F)c2-c2nc3cc(C(=O)NC45COC(C)(C4)C5)ccn3c2C#N)c(F)n1 [Compound 845, 3-cyano-2-(2-fluoro-6-(3-fluoro-1-methyl-1H-pyrazol-4-yl)phenyl)-N-(1-methyl-2-oxabicyclo[2.1.1]hexan-4-yl)imidazo[1,2-a]pyridine-7-carboxamide]	92%
8.82	–	Cc1nn(C)cc1-c1cc(F)cc(F)c1-c1nc2cc(C(=O)N[C@@H]3CO[C@H]4[C@@H]3OC[C@H]4O)ccn2c1Cl [Compound 787, 3-chloro-2-(2-(1,3-dimethyl-1H-pyrazol-4-yl)-4,6-difluorophenyl)-N-((3R,3aR,6R,6aR)-6-hydroxyhexahydrofuro[3,2-b]furan-3-yl)imidazo[1,2-a]pyridine-7-carboxamide]	70%
8.97	–	Cn1cc(-c2cccc(F)c2-c2nc3cc(C(=O)N[C@]45CC[C@](CO)(C4)OC5)ccn3c2Cl)c(F)n1 (single isomer, unassigned; second eluting) [Compound 920, 3-chloro-2-(2-fluoro-6-(3-fluoro-1-methyl-1H-pyrazol-4-yl)phenyl)-N-(1-(hydroxymethyl)-2-oxabicyclo[2.2.1]heptan-4-yl)imidazo[1,2-a]pyridine-7-carboxamide, second eluting enantiomer]	100%
9.00	–	C[C@]1(O)C[C@H](NC(=O)c2ccn3c(Cl)c(-c4ccccc4-c4cnn(C(F)F)c4Cl)nc3c2)C1 [Compound 818]	–
8.73	–	Cc1nn(C)cc1-c1ccccc1-c1nc2cc(C(=O)NCCC(C)(C)O)ccn2c1Cl [Compound 459]	–
8.70	–	N#CC12CC(NC(=O)c3ccn4c(Cl)c(-c5c(F)cc(F)cc5-c5c[nH]nc5F)nc4c3)(C1)C2 [Compound 789, 3-chloro-N-(3-cyanobicyclo[1.1.1]pentan-1-yl)-2-(2,4-difluoro-6-(3-fluoro-1H-pyrazol-4-yl)phenyl)imidazo[1,2-a]pyridine-7-carboxamide]	–
8.77	–	Cn1cc(-c2ccccc2-c2nc3cc(C(=O)NC45CCC(O)(CC4)C5)ccn3c2Cl)c(F)n1 [Compound 855]	–
